Assay results from US20040170591A1, “Dermatological composition comprising nicotinic acid or an amide, and a sphingoid base” (priority 2001, published 2004).

Test system: inflammatory acne of the face
Assay: Clinical trial in patients with inflammatory acne of the face
Format: in vivo, human patients
Conditions: 10 patients 14 to 23 years old; benzoyl peroxide 4 cases, erythromycin 3 cases, nicotinamide gel 3 cases
Excerpt: The composition used is a gel in accordance with that whose composition is given in example 2.

SMILES | improvement of acne with conventional treatment
O=C(OOC(=O)c1ccccc1)c1ccccc1 [benzoyl peroxide] | no notable improvement
CC[C@H]1OC(=O)[C@H](C)[C@@H](O[C@H]2C[C@@](C)(OC)[C@@H](O)[C@H](C)O2)[C@H](C)[C@@H](O[C@@H]2O[C@H](C)C[C@H](N(C)C)[C@H]2O)[C@](C)(O)C[C@@H](C)C(=O)[C@H](C)[C@@H](O)[C@]1(C)O [erythromycin] | no notable improvement
